These are literature values, as cited in US20240139105A1, “PHARMACEUTICAL COMPOSITION CONTAINING GHRP-6” (CENTRO DE INGENIERÍA GENÉTICA Y BIOTECNOLOGÍA, priority 2021, published 2024).

Where no end group is shown, it is not given here. [ ]: non-standard residue; d: D form. Where only a bound is given, the exact number is not on record here.

One data set deals with pigs. The settings on record: model of acute myocardial infarction in pigs.
Another data set deals with humans. To be noted: intravenous route.
The subject of data set [1] is Mongolia gerbil (Meriones unguiculatus). The settings on record: model of ischemic cerebral infarction, in combination with EGF.

In the case of “His-Trp-Ala-Trp-Phe-Lys-NH2 (H[dW]AW[dF]K-NH2) [GHRP-6, synthetic peptide, growth hormone secretagogue; the API of all formulations]”, the Therapeutic dosage reported is 400 µg/kg in the data set on pigs and “around 600 μg/kg” in data set [1]. In addition, the “Doses referred as safe in humans” value in the data set on humans is at most 2 µg/kg.
